Consider two compounds from patent US20260199327A1, “PHARMACEUTICAL COMBINATION AND PHARMACEUTICAL COMPOSITION FOR TREATING CANCER” (CSPC ZHONGQI PHARMACEUTICAL TECHNOLOGY (SHIJIAZHUANG) CO., …, priority 2022, published 2026).

Read-outs that look alike come from different tables or passages of the source. Marks after values point to notes of the source that are not given here.

Data set [1] relates to Hep3B (human hepatocarcinoma cell line) xenograft. An excerpt:
42 NU/NU mouse, female, 42-48 days old, weighing 22-26 g.
Hep3B cells were resuscitated and passaged in vitro to the desired number of cells. The cells were counted under a microscope, and diluted with serum-free medium and matrix gel (1:1) to adjust the number of tumor cells to approximately 5×10^7 cells/mL. The cell suspension was placed in an ice bath.
Hep3B cell suspension was withdrawn with a sterile syringe for inoculation into subcutaneous tissue in the axilla of the forelimb of NU/NU mice, with a volume of 0.1 mL/per mice, containing approximately 5.0×10^6 tumor cells, to prepare NU/NU mice Hep3B xenogratf model.
In the vehicle group, the solvents were administered at the same frequency and volume for 14 consecutive days.
4.3 Observation Criteria and Evaluation Criteria • (1) General state observation: all animals were observed once a day during the test period and the abnormalities in various parts of the body and the behavior change situations were recorded. • (2) Body weight: all animals were weighed once before testing and the appropriate body weight of animals were selected for testing. Animals were weighed once a day at a fixed time after initiation of administration for weight monitoring, and body weight statistics were consistent with tumor volume statistics. • (3) Death and moribund: time of death was recorded for dead animals, moribund animals were observed more frequently, and time of death was determined. • (4) Tumor Evaluation
After animal grouping, tumor length and short diameters were measured twice per week. • (1) Tumor volume: V=½×a×b^2 • (2) Relative tumor volume:
[formula] • (3) Relative tumor volume proliferation rate:
[formula] • (4) Tumor growth inhibition rate:
[formula] • Note: V: Tumor volume • a: tumor length; b: tumor width; RTV: relative tumor volume; TVnd: tumor volume on day n; TV0d: tumor volume on day 0; RTVxnd: mean relative tumor volume on day n; TVXn: mean tumor volume on day n in the administrated group; TVX0: mean tumor volume on day 0 in the administrated group; TVMn: mean tumor volume on day n in the solvent (model) group; TVM0: mean tumor volume on day 0 in the solvent (model) group. • (5) Tumor weight
At the end of the test, the animals were sacrificed by cervical dislocation, and a tumor was stripped and weighed.
Data were processed using SPSS 19.0 statistical software. Repeated Measure process analyzed tumor volume changes between groups with multiple measurements over time. Multivariate process compared differences in tumor volume between groups at each measurement. Difference in tumor weight between groups was analyzed by LSD method of One-way ANOVA.

For data set [2] the test system is unchanged. How it is done: 36 BALB/c Nude mice, female, 18-20 g in body weight.
Compounds of formula (B), sorafenib tosylate, palbociclib.
Sorafenib tosylate/palbociclib: a solution of castor oil, anhydrous ethanol and ultrapure water in a volume ratio of 1:1:6.
In the solvent group, the solvents were administered at the same frequency and volume for 16 consecutive days.
4.3 Observation Criteria and Evaluation Criteria: Same as Example 2
The source holds these as a separate data set.

The next data set addresses FGFR4 (Homo sapiens, UniProt P22455). The data set is described as follows: FGFR4 kinase activity inhibition experiment (Caliper mobility shift assay). Format: biochemical. How it is done: FGFR4 protein kinase activity was determined using Caliper mobility shift assay. The compound was dissolved in DMSO and then diluted with kinase buffer, 5 μL of 5-fold final reaction concentration of compound (10% DMSO) was added to a 384-well plate. […] After incubation at 28° C. for 30-60 minutes, 25 μL of stop solution was added to stop the reaction. Conversion data was read on Caliper EZ Reader II (Caliper Life Sciences). The conversion rate was converted to inhibition rate (% inhibition=(max−sample conversion rate)/(max−min)*100), wherein max refers to the conversion rate of the DMSO control, and min refers to the conversion rate of enzyme-free control. Curve was plotted with compound concentration and inhibition rate on the horizontal and vertical coordinates respectively, and the curve was fitted and IC50 was calculated using XLFit excel add-in version 4.3.1 software.

Another data set concerns Huh-7 cells. The data set is described as follows: Huh-7 tumor cell proliferation inhibition assay (CellTiter Glo). Format: cell-based. The settings on record: Homo sapiens, 72 or 168 hours. The method, then: Huh-7 cell suspension was adjusted to 5×10^4/ml or 2×10^4/ml with DMEM+2 mM Glutamine+10% FBS medium. 100 μL of cell suspension was added per well to a 96-well cell culture plate, to give a final cell concentration of 5000 cells/well (72 hours) or 2000 cells/well (168 hours). The compound to be tested (compound of formula (B)) was dissolved in DMSO to give 10 mmol of stock solution. 200× final concentration of compound was prepared with stock solution and DMSO, and 3× serial gradient dilutions were prepared, then diluted 20-fold each with medium. Finally, 10 μL of the corresponding 10-fold solution was added per well for each cell, wherein each drug concentration was added in one well. […] After 72 or 168 hours of drug treatment, according to CTG instructions (CellTiter Glo), 100 μL of CTG solution that had been previously thawed and equilibrated to room temperature was added per well, mixed for 2 minutes using a microplate shaker, placed at room temperature for 10 minutes, and then chemiluminescent signal value was measured with EnSpire plate reader. Cell survival was calculated using formula: (Vsample−Vblank)/(Vvehicle control−Vblank)×100%, wherein Vsample is the reading of the drug treatment group, Vvehicle control is the average of the solvent control group, and Vblank is the average of the blank control wells. […]
In general terms: ATP-based viability assays read luminescence as a measure of living cells.

The conditions of data set [3]: 638 patients, cited from earlier work.
The conditions of data set [4]: patients taking sorafenib, N=2276; cited from earlier work.
Setting [5] is: NU/NU mice, gavage qd 14 days, compound of formula (B) 5 mg/kg, lenvatinib mesylate 8 mg/kg, palbociclib 50 mg/kg.
[6] abbreviates: d14, compound of formula (B) 5 mg/kg, lenvatinib mesylate 8 mg/kg, palbociclib 50 mg/kg qd.
Setting [7] is: BALB/c Nude mice, gavage qd 16 days, compound of formula (B) 5 mg/kg, sorafenib tosylate 8 mg/kg, palbociclib 50 mg/kg.
The mark [8] stands for this setting: compound of formula (B) 5 mg/kg, sorafenib tosylate 8 mg/kg, palbociclib 50 mg/kg qd.
The mark [9] stands for this setting: compound of formula (B) 5 mg/kg, sorafenib tosylate 8 mg/kg, palbociclib 50 mg/kg qd, listed as compound of formula (B).
Setting [10] is: most common drug-related adverse events.

Chain of FGFR4 (P22455 22-802): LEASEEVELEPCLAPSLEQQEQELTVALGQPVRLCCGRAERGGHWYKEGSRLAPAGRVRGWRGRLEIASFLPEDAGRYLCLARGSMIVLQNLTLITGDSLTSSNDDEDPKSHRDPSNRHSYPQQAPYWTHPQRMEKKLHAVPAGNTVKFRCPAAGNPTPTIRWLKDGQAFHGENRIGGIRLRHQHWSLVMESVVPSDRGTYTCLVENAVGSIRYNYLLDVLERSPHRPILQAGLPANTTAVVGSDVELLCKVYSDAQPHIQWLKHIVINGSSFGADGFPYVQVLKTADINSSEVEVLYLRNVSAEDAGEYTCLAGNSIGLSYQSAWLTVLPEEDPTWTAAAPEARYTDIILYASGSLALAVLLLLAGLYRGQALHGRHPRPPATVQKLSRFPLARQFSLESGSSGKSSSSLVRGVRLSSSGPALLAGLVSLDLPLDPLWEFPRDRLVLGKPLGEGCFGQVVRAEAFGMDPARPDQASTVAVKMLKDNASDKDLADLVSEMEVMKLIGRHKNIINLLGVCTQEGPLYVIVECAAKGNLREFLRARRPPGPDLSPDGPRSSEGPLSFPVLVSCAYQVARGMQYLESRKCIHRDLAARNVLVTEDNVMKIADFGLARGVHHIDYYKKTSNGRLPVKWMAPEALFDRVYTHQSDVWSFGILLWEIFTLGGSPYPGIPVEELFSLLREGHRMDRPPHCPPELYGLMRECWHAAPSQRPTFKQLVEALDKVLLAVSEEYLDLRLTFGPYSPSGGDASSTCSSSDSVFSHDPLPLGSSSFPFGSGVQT

In general, IC50 refers to the concentration needed to halve the response being measured. As to `N#Cc1cnc(NC(=O)N2CCCc3cc(CN4CCN5CCC[C@H]5C4=O)c(C=O)nc32)cc1NC1CC1` [Compound of formula (B)], the “Change Rate in Weight (%)” value in data set [1] (setting [5]) is −4.5%; in data set [2] (setting [7]) it was −12.0%. Besides, the “Number of Animals (Survived/Total)” value in data set [1] (setting [5]) is 7/7; in data set [2] (setting [7]) it was 6/6. For the same compound, the “growth of tumor (tumor weight) versus vehicle, in words” value in data set [1] (at the test dose) is “significantly inhibited the growth of the xenograft tumor”. Moreover, the “growth of xenograft tumor (tumor volume) versus vehicle, in words” value was “significantly inhibited the growth of the xenograft tumor” in data set [1] (at the test dose) and “can significantly inhibit the growth of the xenograft tumor” in data set [2] (at the test dose). Moreover, in data set [1] (d14, Mean ± SD, n = 7, compound of formula (B) 5 mg/kg, lenvatinib mesylate 8 mg/kg, palbociclib 50 mg/kg qd), the “TV (mm^3) d14” value is 607.8 ± 277.1** mm^3. Also, the “T/C d14 (%) (relative tumor volume proliferation rate)” value in data set [1] (setting [6]) worked out at 55.8%. Moreover, the “TGI d14 (%) (tumor growth inhibition rate)” value in data set [1] (setting [6]) was 49.1%. Also, the “Tumor Weight” value in data set [1] (end of test, Mean ± SD, n = 7, compound of formula (B) 5 mg/kg, lenvatinib mesylate 8 mg/kg, palbociclib 50 mg/kg qd) is 0.7481 ± 0.3692 g; in data set [2] (end of test, Mean ± SD, n = 6, compound of formula (B) 5 mg/kg, sorafenib tosylate 8 mg/kg, palbociclib 50 mg/kg qd), 0.59 ± 0.34 g. For the same compound, the “Tumor Weight Inhibition Rate (%)” value was 43.8% in data set [1] (end of test, compound of formula (B) 5 mg/kg, lenvatinib mesylate 8 mg/kg, palbociclib 50 mg/kg qd); 46.4% in data set [2] (end of test, compound of formula (B) 5 mg/kg, sorafenib tosylate 8 mg/kg, palbociclib 50 mg/kg qd); 27.8% in data set [2] (end of test, compound of formula (B) 5 mg/kg, sorafenib tosylate 8 mg/kg, palbociclib 50 mg/kg qd, listed as compound of formula (B)). Besides, the “tumor growth (tumor weight) versus vehicle, in words” value in data set [2] (at the test dose) is “can significantly inhibit tumor growth”. For the same compound, in data set [2] (d16, Mean ± SD, n = 6, compound of formula (B) 5 mg/kg, sorafenib tosylate 8 mg/kg, palbociclib 50 mg/kg qd), the “TV(mm3) d16” value came out at 608.1 ± 293.4 mm3. Further, the “T/C d16 (%) (relative tumor volume proliferation rate)” value in data set [2] (setting [8]) is 75.1%; in data set [2] (setting [9]) it was 84.5%. Further, the “TGI d16 (%) (tumor growth inhibition rate)” value in data set [2] (setting [8]) came out at 44.5%; in data set [2] (setting [9]) it was 30.9%. Further, the “tumor volume growth compared to model (vehicle) group at corresponding time points, in words” value in data set [2] (days as stated (d13-d16 alone; d3-d6, d10-d16 with sorafenib tosylate; d6-d16 with palbociclib)) was “can significantly inhibit tumor volume growth”. The IC50 was less than 5 nM on FGFR4 and less than 10 nM in the data set with Huh-7 cells.

Regarding `CNC(=O)c1cc(Oc2ccc(NC(=O)Nc3ccc(Cl)c(C(F)(F)F)c3)cc2)ccn1` [sorafenib], in data set [3], the “incidence of CTC (version V2.0) Grade 3 drug-related adverse events” value is on record as 37% and the “incidence of CTC (version V2.0) Grade 4 drug-related adverse events” value is given as 3%. In data set [3] (setting [10]), the diarrhea is 37%; the “hand and foot skin reactions” value is 35%; the malaise is 33%; the rash was 38%. The “incidence of congestive heart failure” value in data set [4] was 1.9%.
